Results as given in patent US9498438B2 (The University of Liverpool, priority 2011, dated 2016).

What was measured:
Assay type in all cases: cell-based
HIVIIIB in MT4 cells = assay: Inhibition of cultured HIV-IIIB in MT4 cells (MTT assay); conditions: Human immunodeficiency virus 1, 120 h, 70% loaded, 5 days, read-out: IC50 (nM), Table 11
Procedure: HIVIIIB and the human T-cell line, MT4, were supplied by the National Institute for Biological Standards and Control (NIBSC), the Centre for AIDS Reagents (CFAR: Hertfordshire, Uk). MT4 cells were grown and routinely maintained in RPMI-1640 (Sigma; Dorest, Uk) supplemented with 10% fetal bovine serum (FBS; Bio-Whittaker, Berkshire, Uk) at 37° C. and 5% CO2 and sub-cultured every 3 days. Cell counts and viability was determined by Trypan Blue exclusion using a disposable plastic haemocytometer (Labtech International Ltd, UK). HIVIIIB was propagated by passage through MT4 cells in RPMI-1640 and 10% FBS for 12 days and a subsequent multiplicity of infection (MOI) was determined by MTT assay.
MT4 cells were dispensed into 50 ml falcon tubes and centrifuged at 2000 rpm and 4° C. for 5 minutes. The supernatant was aspirated and the resulting pellet resuspended to a cell density of 1×10^5/ml in RPMI 1640 supplemented with 10% FBS and 1 ml of viral isolate (M.O.I 0.001). After further centrifugation for 5 minutes at 2000 rpm, the MT4/HIVIIIB pellet was incubated at 37° C. and 5% CO2 for 2 hours. […]
Following incubation for 5 days of MT4/HIVIIIB with nano formulated EFV at 37° C. and 5% CO2. […] Absorbance was read at 570 nm on a plate reader (Tecan Magellan, Austria).

[1] = ATP cell viability assay (CellTiter-Glo) cytotoxicity; conditions: human, THP-1 (monocyte) cells
Procedure: The same procedure was followed for each individual excipient (23 samples) with concentrations range of 1 μM to 1 M.
Prior to starting viability assays, all reagents were made fresh and in accordance to manufacturer's instructions and allowed to equilibrate to room temperature immediately before use. After 24 hours incubation, 96 well plates were removed from the incubator and the plate and its contents allowed too equilibrate to room temperature for approximately 30 minutes. After 30 minutes, 80 μl of media was aspirated from each individual well and 20 μl CellTiter-Glo® Reagent (Promega, UK) was added to the remaining media and cells. The contents were then mixed for 2 minutes on an orbital shaker to induce cell lysis. The plate was then further incubated at room temperature for 10 minutes to stabilise luminescent signal. Luminescence was then measured using a Tecan Genios plate reader (Tecan; Austria).

[2] = as above; conditions: human, A-THP-1 (PMA-activated THP-1, macrophage like) cells
[3] = as above; conditions: human
Source text: HepG2 (hepatic) and Caco-2 (intestinal) cells were purchased from American Type Tissue Culture (ATCC; USA) and maintained in Dulbecco's modified eagle's medium (DMEM; Sigma; Dorest, Uk) supplemented with 10% fetal bovine serum (FBS; Bio-Whittaker, Berkshire, Uk) for HepG2 and 15% FBS for Caco-2. CEM (lymphocyte) and THP-1 (monocyte) cells were purchased from European Collection of Cell Culture (ECACC; Porton Down, Uk) and grown in RPMI-1640 (Sigma; Dorest, Uk) supplemented with 10% FBS. All cell lines were incubated at 37° C. and 5% CO2 and for adherent cells (HepG2 and Caco-2) were routinely sub-cultured every 4 days when 95% confluent. Suspension cells (CEM and THP-1) were routinely sub-cultured when a density of 1×10^6 cells/ml was achieved. Cell count and viability was determined by Trypan Blue exclusion assay.
HepG2, Caco-2, THP-1, CEM and A-THP-1 cells were separately seeded at a density of 2.5×10^4/100 μl in their appropriate media into each well of a 96 well plate (Nunclon™, Denmark) and incubated for 24 hours at 37° C. and 5% CO2. […]
Prior to starting viability assays, all reagents were made fresh and in accordance to manufacturer's instructions and allowed to equilibrate to room temperature immediately before use. […] Luminescence was then measured using a Tecan Genios plate reader (Tecan; Austria).

SMILES: O=C1Nc2ccc(Cl)cc2[C@@](C#CC2CC2)(C(F)(F)F)O1 [Aqueous solution, efavirenz]
- IC50 (HIVIIIB in MT4 cells): 71 nM
- IC50 at 24 h [1]: 29 µM
- IC50 at 24 h [2]: 29 µM
- IC50 at 24 h ([3]; CEM (lymphocyte) cells): 40 µM
- IC50 at 24 h ([3]; HepG2 (hepatic) cells): 33 µM
